Reference: patent US5688803A, “Tricyclic dicarbonyl derivatives” (Hoffmann-La Roche Inc., priority 1994, dated 1997)
Counter-ions that a name gives are not always drawn. Like-named read-outs stand apart in the source and are kept apart here.

Tests used:
[1] = molecular target: T1, glycine binding site on the NMDA receptor (Rattus norvegicus, UniProt P35439); experiment: Inhibition of [3H]-DCKA (3H-5,7-dichlorokynurenic acid) binding to the glycine binding site on the NMDA receptor, rat brain membranes
T1 construct: membrane preparations from rat brain; from tissue; host or cells: rat brain membranes
Experimental: In order to determine the unspecific binding, the corresponding ligands with concentrations of 1 mM glycine and, respectively, 1 mM glutamate are added. Membrane-bound radioligand is separated from non-bound ligands by centrifugation (15 min, at 40 000 kg; ^3 H-DCKA) or filtration (combination of Whatmann GF/C and GF/B filters; ^3 H-AMPA).
The described substances are used in the binding experiments in different concentrations. The concentrations which inhibited 50% of the binding were determined on the basis of dosage-activity curves for the inhibition of the binding of the corresponding radioligands.

[2] = molecular target: glutamate binding site on the kainate/AMPA receptor; experiment: Inhibition of [3H]-AMPA binding to the glutamate binding site on the kainate/AMPA receptor, rat brain membranes; details: 10 nM ^3 H-AMPA; membrane preparations from rat brain; unspecific binding with 1 mM glutamate; filtration
Experimental: Carefully washed membrane preparations from rat brain are used for the binding studies. The radioligands are used with concentrations of 20 nM ^3 H-DCKA and, respectively, 10 nM ^3 H-AMPA.
In order to determine the unspecific binding, the corresponding ligands with concentrations of 1 mM glycine and, respectively, 1 mM glutamate are added. Membrane-bound radioligand is separated from non-bound ligands by centrifugation (15 min, at […]; ^3 H-DCKA) or filtration (combination of Whatmann GF/C and GF/B filters; ^3 H-AMPA).
The described substances are used in the binding experiments in different concentrations.

[3] = 20 nM ^3 H-DCKA, membrane preparations from rat brain, unspecific binding with 1 mM glycine, centrifugation, read-out: [^3 H]-DCKA IC50

IC50 [1, 3] [nM] | IC50 [2] [nM] | Compound | IC50 [1] [nM]
459 | 421 | O=c1[nH]oc2c1c(=O)[nH]c1cc([N+](=O)[O-])ccc12 [Example 55, 7-nitro-2,3,4,5-tetrahydro-isoxazol-[4,5-c]quinoline-3,4-dione] | –
360 | 189 | O=c1[nH]nc2c3cc(F)c([N+](=O)[O-])cc3[nH]c(=O)n12 [Example 27, 9-Fluoro-8-nitro-2,3,5,6-tetrahydro-1,2,4-triazolo[4,3-c]quinazoline-3,5-dione] | –
266 | 20 | O=c1[nH]oc2c1c(=O)[nH]c1cc(Cl)ccc12 [Example 56, 7-Chloro-2,3,4,5-tetrahydro-isoxazolo[4,5-c]quinoline-3,4-dione] | –
50 | 50 | O=c1[nH]nc2c3cc(Cl)c([N+](=O)[O-])cc3[nH]c(=O)n12 [Example 25, 9-Chloro-8-nitro-2,3,5,6-tetrahydro-1,2,4-triazolo[4,3-c]quinazoline-3,5-dione] | –
79 | 620 | O=c1[nH]nc2c3c(Cl)cc(Cl)cc3[nH]c(=O)n12 [Example 12, 8,10-Dichloro-2,3,5,6-tetrahydro-1,2,4-triazolo[4,3-c]quinazoline-3,5-dione] | –
342 | 47 | CN(C)c1cc2c(cc1[N+](=O)[O-])[nH]c(=O)n1c(=O)[nH]nc21 [Example 30, 9-Dimethylamino-8-nitro-2,3,5,6-tetrahydro-1,2,4-triazolo[4,3-c]quinazoline-3,5-dione] | –
68 | 71 | O=c1[nH]nc2c3cc(Br)c([N+](=O)[O-])cc3[nH]c(=O)n12 [Example 38, 9-Bromo-8-nitro-2,3,5,6-tetrahydro-1,2,4-triazolo[4,3-c]quinazoline-3,5-dione] | –
132 | 2310 | Cc1cc2[nH]c(=O)n3c(=O)[nH]nc3c2cc1C [Example 14, 8,9-Dimethyl-2,3,5,6-tetrahydro-1,2,4-triazolo[4,3-c]quinazoline-3,5-dione] | –
432 | 1750 | O=c1[nH]nc2c3ccc(Cl)cc3[nH]c(=O)n12 [Example 3, 8-Chloro-2,3,5,6-tetrahydro-1,2,4-triazolo[4,3-c]quinazoline-3,5-dione] | –
73 | 1370 | O=c1[nH][nH]c2c1c(O)nc1cc(Cl)c(Cl)cc12 [Example 49, 7,8-Dichloro-4-hydroxy-2,3-dihydro-1H-pyrazolo[4,3-c]quinolin-3-one] | –
2560 | 16 | O=c1nc2c3cc(-n4ccnc4)c([N+](=O)[O-])cc3[nH]c(=O)n2[nH]1 [Example 36, 9-Imidazol-1-yl-8-nitro-2,3,5,6-tetrahydro-[1,2,4]-triazolo[1,5-c]quinazoline-2,5-dione] | –
193 | 7310 | O=c1[nH][nH]c2c1c(O)nc1cc(Cl)ccc12 [Example 48, 7-Chloro-4-hydroxy-2,3-dihydro-1H-pyrazolo[4,3-c]quinolin-3-one] | –
8540 | 296 | O=c1[nH]nc2c3cc(N4CCOCC4)c([N+](=O)[O-])cc3[nH]c(=O)n12 [Example 34, 9-morpholin-4-yl-8-nitro-2,3,5,6-tetrahydro-1,2,4-triazolo[4,3-c]quinazoline-3,5-dione] | –
189 | 1480 | O=c1[nH]nc2c3ccc(I)cc3[nH]c(=O)n12 [Example 9, 8-Iodo-2,3,5,6-tetrahydro-1,2,4-triazolo[4,3-c]quinazoline-3,5-dione] | –
690 | 243 | O=c1[nH]nc2c3ccc([N+](=O)[O-])cc3[nH]c(=O)n12 [Example 21, 8-Nitro-2,3,5,6-tetrahydro-1,2,4-triazolo[4,3-c]quinazoline-3,5-dione] | –
31 | 660 | O=c1[nH]nc2c3cc(Cl)c(Cl)cc3[nH]c(=O)n12 [Example 11, 8,9-Dichloro-2,3,5,6-tetrahydro-1,2,4-triazolo[4,3-c]quinazoline-3,5-dione] | –
710 | 8160 | O=c1[nH]nc2c3ccc(F)cc3[nH]c(=O)n12 [Example 6, 8-Fluoro-2,3,5,6-tetrahydro-1,2,4-triazolo[4,3-c]quinazoline-3,5-dione] | –
180 | 2370 | COc1ccc2c(c1)[nH]c(=O)n1c(=O)[nH]nc21 [Example 17, 8-Methoxy-2,3,5,6-tetrahydro-1,2,4-triazolo[4,3-c]quinazoline-3,5-dione] | –
359 | 362 | O=c1[nH]nc2c3cc([N+](=O)[O-])c(Cl)cc3[nH]c(=O)n12 [Example 24, 8-Chloro-9-nitro-2,3,5,6-tetrahydro-1,2,4-triazolo[4,3-c]quinazoline-3,5-dione] | –
379 | 1010 | O=c1[nH]nc2c3ccc(C(F)(F)F)cc3[nH]c(=O)n12 [Example 23, 8-Trifluoromethyl-2,3,5,6-tetrahydro-1,2,4-triazolo[4,3-c]quinazoline-3,5-dione] | –
1320 | 8590 | Nc1cc2c(cc1Cl)[nH]c(=O)n1c(=O)[nH]nc21 [Example 29, 9-amino-8-chloro-2,3,5,6-tetrahydro-1,2,4-triazolo[4,3-c]quinazoline-3,5-dione hydrochloride] | –
202 | 1250 | O=c1[nH]nc2c3cc(F)c(Cl)cc3[nH]c(=O)n12 [Example 10, 8-Chloro-9-fluoro-2,3,5,6-tetrahydro-1,2,4-triazolo[4,3-c]quinazoline-3,5-dione] | –
322 | 1170 | O=c1[nH]nc2c3ccc(Br)cc3[nH]c(=O)n12 [Example 8, 8-Bromo-2,3,5,6-tetrahydro-1,2,4-triazolo[4,3-c]quinazoline-3,5-dione] | –
3600 | 163 | O=c1[nH]nc2c3cc(N4CCCC4)c([N+](=O)[O-])cc3[nH]c(=O)n12 [Example 32, 8-Nitro-9-pyrrolidin-1-yl-2,3,5,6-tetrahydro-1,2,4-triazolo-[4,3-c]quinazoline-3,5-dione] | –
909 | – | O=c1[nH]ncc2c1c(O)nc1cc(Cl)ccc12 [Example 43, 8-Chloro-5-hydroxy-3,4-dihydro-pyridazino [4,5-c]quinolin-4-one] | –
43 | 82 | O=c1nc2c3cc(Cl)c([N+](=O)[O-])cc3[nH]c(=O)n2[nH]1 [Example 26, 9-Chloro-8-nitro-1-yl-2,3,5,6-tetrahydro-[1,2,4]triazolo[1,5-c]quinazoline-2,5-dione sodium salt] | –

Compound | IC50 [1, 3] [nM] | IC50 [2] [nM] | IC50 [1] [nM]
O=c1nc2c3cc(N4CCCC4)c([N+](=O)[O-])cc3[nH]c(=O)n2[nH]1 [sodium salt] | 3060 | 336 | –
O=c1[nH]nc2c3cc([N+](=O)[O-])c([N+](=O)[O-])cc3[nH]c(=O)n12 [Example 37, 8,9-Dinitro-2,3,5,6-tetrahydro-1,2,4-triazolo[4,3-c]quinazoline-3,5-dione] | – | 117 | 640
